Measurements: publication PMC3362798 (Bioorganic & medicinal chemistry letters, 2012)
Where two headings read alike, the source gives them in different places.

Legend:
NPY Y2 = NPY Y2 antagonist; cited from earlier work
[1] = cited from earlier work
mice = details: intracerebroventricular (icv) administration; cited from earlier work
rats = details: intracerebroventricular (icv) administration; cited from earlier work
NPY Y2 receptor = biological target: T1, NPY Y2 receptor (Homo sapiens, UniProt P49146); test: cAMP biosensor assay, NPY Y2 receptor antagonism; type: cell-based; details: for fold increase in potency compared to SF-11: more potent than SF-11
T1 sequence (P49146 1-381): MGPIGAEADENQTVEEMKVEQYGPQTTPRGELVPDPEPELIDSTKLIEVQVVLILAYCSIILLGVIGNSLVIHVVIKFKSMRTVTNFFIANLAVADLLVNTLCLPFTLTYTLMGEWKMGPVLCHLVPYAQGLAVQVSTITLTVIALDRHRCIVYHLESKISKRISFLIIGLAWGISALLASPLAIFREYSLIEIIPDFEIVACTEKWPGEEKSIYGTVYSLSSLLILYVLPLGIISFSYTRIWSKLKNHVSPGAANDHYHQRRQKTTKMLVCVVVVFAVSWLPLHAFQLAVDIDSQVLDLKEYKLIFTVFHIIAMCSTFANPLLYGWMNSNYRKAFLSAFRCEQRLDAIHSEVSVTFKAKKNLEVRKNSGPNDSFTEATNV

[2] = system: NPY Y1 and 38 off-target receptors, including GPCRs, transporters and ion-channels; details: cited from earlier work

N=C(N)NCCC[C@H](NC(=O)CC1(CC(=O)N2CCN(C3c4ccccc4NC(=O)c4ccccc43)CC2)CCCC1)C(=O)NCCn1c(=O)n(-c2ccccc2)n(-c2ccccc2)c1=O (stereo partly shown) [BIIE0246]
IC50 (NPY Y2): 3.3 nM
brain penetration ([1]; BIIE0246): poor brain penetration
antidepressant-like effects (mice): induced antidepressant-like effects
ethanol consumption (rats): decreased ethanol consumption

OC(c1ccccc1)(c1ccccc1)C1CCN(C(=S)Nc2ccccc2)CC1 [Compound 1]
NPY Y2 antagonist activity (in words) (NPY Y2 receptor): complete loss of activity

CCN(CC)c1ccc(NC(=S)N2CCC(C(O)(c3ccccc3)c3ccccc3)CC2)cc1 [Compound 8]
fold increase in potency compared to SF-11 (NPY Y2 receptor): ~3 fold

CCN(CC)C(=O)c1ccc(NC(=S)N2CCC(C(O)(c3ccccc3)c3ccccc3)CC2)cc1 [Compound 15]
fold more potent than N,N-dimethylamide analogue 14 (NPY Y2 receptor; compared with 14): 4 fold

CN(C)S(=O)(=O)c1ccc(NC(=S)N2CCC(C(O)(c3ccccc3)c3ccccc3)CC2)cc1 [Compound 16]
fold increase in potency compared to SF-11 (NPY Y2 receptor): 10 fold

CCOC(=O)c1cccc(NC(=S)N2CCC(C(O)(c3ccccc3)c3ccccc3)CC2)c1 [Compound 22]
NPY Y2 antagonist activity (in words) (NPY Y2 receptor): partial antagonism

CCOc1ccc(NC(=S)N2CCC(C(O)(c3ccccc3)c3ccccc3)CC2)c(C)c1 [Compound 27]
NPY Y2 antagonist activity (in words) (NPY Y2 receptor): complete loss of activity

CCOc1ccc(NC(=S)N2CCC(C(O)(c3ccccc3)c3ccccc3)CC2)c(C(F)(F)F)c1 [Compound 28]
NPY Y2 antagonist activity (in words) (NPY Y2 receptor): complete loss of activity

OC(c1ccccc1)(c1ccccc1)C1CCN(C(=S)Nc2ccc(C(F)(F)F)cc2Cl)CC1 [Compound 29]
NPY Y2 antagonist activity (in words) (NPY Y2 receptor): complete loss of activity

CCOc1ccc(NC(=S)N2CCC(C(O)(c3ccccc3)c3ccccc3)CC2)c(F)c1 [Compound 30]
fold less potent than SF-11 (NPY Y2 receptor; less potent than SF-11): ~7 fold

COC(c1ccccc1)(c1ccccc1)C1CCN(C(=S)Nc2ccc(S(=O)(=O)N(C)C)cc2)CC1 [Compound 35]
NPY Y2 antagonist activity (in words) (NPY Y2 receptor): no activity

CCOc1ccc(NC(=S)N2CCN(C(c3ccccc3)c3ccccc3)CC2)cc1 [Compound 36]
NPY Y2 antagonist activity (in words) (NPY Y2 receptor): retained the activity

CCOc1ccc(NC(=S)N2CCC(C(O)(c3ccccc3)C3CCCCC3)CC2)cc1 (stereo not shown) [Compound 38]
NPY Y2 antagonist activity (in words) (NPY Y2 receptor): complete loss of activity

CN(C)S(=O)(=O)c1ccc(NC(=S)N2CCN(C3c4ccccc4CCc4ccccc43)CC2)cc1 [Compound 45]
NPY Y2 antagonist activity (in words) (NPY Y2 receptor): inactive

CCN(CC)C(=O)c1ccc(OC(=O)N2CCC(C(O)(c3ccccc3)c3ccccc3)CC2)cc1 [Compound 60]
fold less potent than N,N-diethyl sulfonamide analogue 54 (NPY Y2 receptor; compared with 54): 18 fold

CC(=O)Nc1ccc(OC(=O)N2CCC(C(O)(c3ccccc3)c3ccccc3)CC2)cc1 [Compound 61]
NPY Y2 antagonist activity (in words) (NPY Y2 receptor): completely lost the activity

CCC(=O)Nc1ccc(OC(=O)N2CCC(C(O)(c3ccccc3)c3ccccc3)CC2)cc1 [Compound 62]
NPY Y2 antagonist activity (in words) (NPY Y2 receptor): completely lost the activity

CS(=O)(=O)Nc1ccc(OC(=O)N2CCC(C(O)(c3ccccc3)c3ccccc3)CC2)cc1 [Compound 63]
NPY Y2 antagonist activity (in words) (NPY Y2 receptor): retained the antagonist activity

CCN(CC)C(=O)c1cccc(OC(=O)N2CCC(C(O)(c3ccccc3)c3ccccc3)CC2)c1 [Compound 64]
NPY Y2 antagonist activity (in words) (NPY Y2 receptor): no activity

CCN(CC)S(=O)(=O)c1cccc(OC(=O)N2CCC(C(O)(c3ccccc3)c3ccccc3)CC2)c1 [Compound 65]
NPY Y2 antagonist activity (in words) (NPY Y2 receptor): no activity

CCOc1ccc(NC(=S)N2CCC(C(O)(c3ccccc3)c3ccccc3)CC2)cc1 [SF-11, N-(4-ethoxyphenyl)-4-[hydroxy(diphenyl)methyl]piperidine-1-carbothioamide]
brain penetration ([1]; HTS hit chemotypes): brain-penetrant
selectivity against NPY Y1 and 38 off-target receptors [2]: selective

Cc1ccc(C)c(NS(=O)(=O)c2cc(C(=O)Nc3ccccc3-c3ccccc3)ccc2C)c1 [SF-21]
brain penetration ([1]; HTS hit chemotypes): brain-penetrant
selectivity against NPY Y1 and 38 off-target receptors [2]: selective

COc1cccc(-c2nc(-c3ccc(NC(=O)Cc4ccccc4OC)cc3)no2)c1 [SF-31]
brain penetration ([1]; HTS hit chemotypes): brain-penetrant
selectivity against NPY Y1 and 38 off-target receptors [2]: selective

Cc1ccc(S(=O)(=O)C(c2ccccc2)c2c(C)noc2C)cc1 (stereo not shown) [SF-41]
brain penetration ([1]; HTS hit chemotypes): brain-penetrant
selectivity against NPY Y1 and 38 off-target receptors [2]: selective
